According to ChEMBL document CHEMBL1146463, “A pair of new C-21 steroidal glycoside epimers from the roots of Cynanchum paniculatum” (2004):
In brackets after ≈: the same amount, converted by molar mass.

test system: Staphylococcus aureus; experiment: Antibacterial activity against methicillin-resistant Staphylococcus aureus after 20 hrs; format: functional

| Structure (SMILES) | MIC |
| --- | --- |
| CO[C@@H]1C[C@H](O[C@H]2CC[C@@]3(C)C(=CC[C@H]4C(=O)O[C@@H]5CO[C@]6(C)O[C@H](O)/C(=C/C[C@@H]43)[C@H]56)C2)O[C@H](C)[C@H]1O [PANICULATUMOSIDE A] | 180 µg/mL (≈ 345 µM) |
| CO[C@@H]1C[C@H](O[C@H]2CC[C@@]3(C)C(=CC[C@H]4C(=O)O[C@H]5CO[C@]6(C)O[C@@H](O)/C(=C/C[C@@H]43)[C@H]56)C2)O[C@H](C)[C@H]1O [PANICULATUMOSIDE B] | 149 µg/mL (≈ 285 µM) |
| CC(=O)OCC1=C(C(=O)O)N2C(=O)[C@@H](NC(=O)CSc3ccncc3)[C@H]2SC1 [CEPHAPIRIN] | 10.5 µg/mL (≈ 24.8 µM) |
